{
  "source": "patent US8038645B2",
  "about": "(Bayer Technology Services GmbH, priority 2005, dated 2011)",
  "origin": "cited, not measured here",
  "key": {"[1]": {"settings": "input parameter for PK-Sim"}, "[2]": {"settings": "input parameter for PK-Sim", "remark": "listed apart in the source"}},
  "note": "Like-named read-outs stand apart in the source and are kept apart here.",
  "data": [
    {"smiles": "CC(C)c1cccc(C(C)C)c1O", "note": "[propofol]", "values": [
      {"measurement": "Lipophilicity", "setting": "[1]", "value": 2.6},
      {"measurement": "Free plasma fraction (age-dependent)", "setting": "[2]", "value": "0.020-0.025"},
      {"measurement": "Blood clearance in ml/min: mean (std. dev.)", "setting": "Ickz et al., adults, mean age 45.2 years, 21 mg/kg/h for 5 min, then 12 mg/kg/h for 10 min, then 6 mg/kg/h", "value": "33.8 (7.8) ml/min"},
      {"measurement": "Blood clearance in ml/min: mean (std. dev.)", "setting": "Kanto et al., pregnant women, mean age 27.1 years, 2.5 mg/kg bolus over 0.17 min", "value": "27.5 (5.5) ml/min"},
      {"measurement": "Blood clearance in ml/min: mean (std. dev.)", "setting": "Mertens et al., young men, mean age 24 years, 1 mg/kg bolus over 1 min, then 3 mg/kg/h", "value": "31.2 (2.8) ml/min"},
      {"measurement": "Blood clearance in ml/min: mean (std. dev.)", "setting": "Raoof et al., children, mean age 1.9 years, 3 mg/kg iv", "value": "38.7 (6.8) ml/min"},
      {"measurement": "Blood clearance in ml/min: mean (std. dev.)", "setting": "Saint-Maurice et al., children, mean age 5.5 years, 2.5 mg/kg bolus over 0.33 min", "value": "30.6 (2.9) ml/min"},
      {"measurement": "Blood clearance in ml/min: mean (std. dev.)", "setting": "Valtonen et al., children, mean age 6.5 years, 2.5 mg/kg bolus over 0.5 min", "value": "32.0 (16.8) ml/min"},
      {"measurement": "Clearance (age-dependent)", "setting": "input parameter for PK-Sim", "value": "29 to 50", "unit": "mL/min/kg"}
    ]}
  ]
}
